Data taken from the supplement of paper PMC13207355.
Counter-ions that a name gives are not always drawn.

Columns and labels:
Details in all cases: exposure time: 72 h
FT3469 [1] = normal neural stem cell line; assay: surviving fraction (nuclei count normalised to DMSO); higher = more cells surviving (less toxic)
E28 [2] = patient-derived glioblastoma stem cells of classical subtype; assay: as above
E31 [3] = patient-derived glioblastoma stem cells of proneural subtype; assay: as above
E34 [4] = patient-derived glioblastoma stem cells of proneural subtype; assay: as above
E57 [5] = patient-derived glioblastoma stem cells of mesenchymal subtype; assay: as above
E21 [6] = patient-derived glioblastoma stem cells of mesenchymal subtype; assay: as above
E13 [7] = patient-derived glioblastoma stem cells of classical subtype; assay: as above
FT3469 [8] = assay: phenotypic distance (Euclidean, principal components) from DMSO controls (arbitrary units); higher = stronger morphological change
E28 [9] = assay: as above
E31 [10] = assay: as above
E34 [11] = assay: as above
E57 [12] = assay: as above
E21 [13] = assay: as above
E13 [14] = assay: as above
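Throughout, for phenotypic distance (Euclidean, principal components) from DMSO controls: cell Painting imaging in 384-well plates, CellProfiler features reduced to at least 20 principal components, Euclidean distance versus same-plate DMSO vehicle wells (0.1% v/v), median over six images per well.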
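Throughout, for surviving fraction (nuclei count normalised to DMSO): nuclei counted by high-content imaging of Hoechst-stained cells in laminin-coated 384-well plates, relative to 0.1% DMSO vehicle wells, with staurosporine as cell-death control.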

CC(C)N1CCN(c2ccc(OCC3COC(Cn4cncn4)(c4ccc(Cl)cc4Cl)O3)cc2)CC1 (stereo unspecified) [Terconazole]
Details | phenotypic distance | surviving fraction
E13 [7], 4.1 nM | – | 0.892
E13 [7], 12.3 nM | – | 0.918
E13 [7], 37 nM | – | 0.999
E13 [7], 111.1 nM | – | 0.856
E13 [7], 333.3 nM | – | 0.988
E13 [7], 1000 nM | – | 1.02
E13 [7], 3000 nM | – | 0.958
E13 [14], 4.1 nM | 0.687 | –
E13 [14], 12.3 nM | 5.3 | –
E13 [14], 37 nM | 0.523 | –
E13 [14], 111.1 nM | 0.619 | –
E13 [14], 333.3 nM | 0.667 | –
E13 [14], 1000 nM | 0.49 | –
E13 [14], 3000 nM | 0.901 | –
E21 [6], 4.1 nM | – | 0.938
E21 [6], 12.3 nM | – | 0.927
E21 [6], 37 nM | – | 0.891
E21 [6], 111.1 nM | – | 0.99
E21 [6], 333.3 nM | – | 0.933
E21 [6], 1000 nM | – | 1.03
E21 [6], 3000 nM | – | 0.813
E21 [13], 4.1 nM | 0.486 | –
E21 [13], 12.3 nM | 0.855 | –
E21 [13], 37 nM | 0.706 | –
E21 [13], 111.1 nM | 0.737 | –
E21 [13], 333.3 nM | 0.686 | –
E21 [13], 1000 nM | 0.994 | –
E21 [13], 3000 nM | 1.83 | –
E28 [2], 4.1 nM | – | 1.15
E28 [2], 12.3 nM | – | 1.04
E28 [2], 37 nM | – | 0.91
E28 [2], 111.1 nM | – | 0.941
E28 [2], 333.3 nM | – | 1.09
E28 [2], 1000 nM | – | 1.02
E28 [2], 3000 nM | – | 0.951
E28 [9], 4.1 nM | 0.79 | –
E28 [9], 12.3 nM | 0.643 | –
E28 [9], 37 nM | 0.472 | –
E28 [9], 111.1 nM | 0.647 | –
E28 [9], 333.3 nM | 0.465 | –
E28 [9], 1000 nM | 0.53 | –
E28 [9], 3000 nM | 2.3 | –
E31 [3], 4.1 nM | – | 1.04
E31 [3], 12.3 nM | – | 0.925
E31 [3], 37 nM | – | 0.922
E31 [3], 111.1 nM | – | 1.01
E31 [3], 333.3 nM | – | 0.96
E31 [3], 1000 nM | – | 0.889
E31 [3], 3000 nM | – | 0.873
E31 [10], 4.1 nM | 0.557 | –
E31 [10], 12.3 nM | 1.01 | –
E31 [10], 37 nM | 0.47 | –
E31 [10], 111.1 nM | 0.863 | –
E31 [10], 333.3 nM | 0.868 | –
E31 [10], 1000 nM | 0.76 | –
E31 [10], 3000 nM | 2.39 | –
E34 [4], 4.1 nM | – | 0.941
E34 [4], 12.3 nM | – | 0.827
E34 [4], 37 nM | – | 0.91
E34 [4], 111.1 nM | – | 1.04
E34 [4], 333.3 nM | – | 1.01
E34 [4], 1000 nM | – | 1.1
E34 [4], 3000 nM | – | 0.994
E34 [11], 4.1 nM | 0.517 | –
E34 [11], 12.3 nM | 1.12 | –
E34 [11], 37 nM | 0.485 | –
E34 [11], 111.1 nM | 0.473 | –
E34 [11], 333.3 nM | 0.562 | –
E34 [11], 1000 nM | 0.745 | –
E34 [11], 3000 nM | 0.672 | –
E57 [5], 4.1 nM | – | 0.985
E57 [5], 12.3 nM | – | 0.938
E57 [5], 37 nM | – | 0.963
E57 [5], 111.1 nM | – | 1
E57 [5], 333.3 nM | – | 0.978
E57 [5], 1000 nM | – | 1
E57 [5], 3000 nM | – | 0.948
E57 [12], 4.1 nM | 0.465 | –
E57 [12], 12.3 nM | 0.601 | –
E57 [12], 37 nM | 0.61 | –
E57 [12], 111.1 nM | 0.332 | –
E57 [12], 333.3 nM | 0.688 | –
E57 [12], 1000 nM | 0.505 | –
E57 [12], 3000 nM | 1.09 | –
FT3469 [1], 4.1 nM | – | 0.997
FT3469 [1], 12.3 nM | – | 0.89
FT3469 [1], 37 nM | – | 0.908
FT3469 [1], 111.1 nM | – | 0.85
FT3469 [1], 333.3 nM | – | 0.987
FT3469 [1], 1000 nM | – | 0.952
FT3469 [1], 3000 nM | – | 0.964
FT3469 [8], 4.1 nM | 0.835 | –
FT3469 [8], 12.3 nM | 0.931 | –
FT3469 [8], 37 nM | 1.01 | –
FT3469 [8], 111.1 nM | 0.79 | –
FT3469 [8], 333.3 nM | 0.822 | –
FT3469 [8], 1000 nM | 0.77 | –
FT3469 [8], 3000 nM | 1.17 | –

CSc1ccc2c(c1)N(CCC1CCCCN1C)c1ccccc1S2 (stereo unspecified) [Thioridazine hydrochloride]
Details | phenotypic distance | surviving fraction
E13 [7], 4.1 nM | – | 0.922
E13 [7], 12.3 nM | – | 0.886
E13 [7], 37 nM | – | 0.934
E13 [7], 111.1 nM | – | 0.929
E13 [7], 333.3 nM | – | 0.939
E13 [7], 1000 nM | – | 0.93
E13 [7], 3000 nM | – | 0.861
E13 [14], 4.1 nM | 0.45 | –
E13 [14], 12.3 nM | 0.608 | –
E13 [14], 37 nM | 0.775 | –
E13 [14], 111.1 nM | 3.1 | –
E13 [14], 333.3 nM | 0.477 | –
E13 [14], 1000 nM | 0.686 | –
E13 [14], 3000 nM | 1.2 | –
E21 [6], 4.1 nM | – | 0.936
E21 [6], 12.3 nM | – | 0.936
E21 [6], 37 nM | – | 0.946
E21 [6], 111.1 nM | – | 1
E21 [6], 333.3 nM | – | 0.935
E21 [6], 1000 nM | – | 0.952
E21 [6], 3000 nM | – | 1.02
E21 [13], 4.1 nM | 1.5 | –
E21 [13], 12.3 nM | 0.757 | –
E21 [13], 37 nM | 0.366 | –
E21 [13], 111.1 nM | 0.452 | –
E21 [13], 333.3 nM | 0.631 | –
E21 [13], 1000 nM | 0.422 | –
E21 [13], 3000 nM | 0.911 | –
E28 [2], 4.1 nM | – | 1.06
E28 [2], 12.3 nM | – | 1.05
E28 [2], 37 nM | – | 1.01
E28 [2], 111.1 nM | – | 1.06
E28 [2], 333.3 nM | – | 1.14
E28 [2], 1000 nM | – | 0.893
E28 [2], 3000 nM | – | 1.05
E28 [9], 4.1 nM | 1.44 | –
E28 [9], 12.3 nM | 0.64 | –
E28 [9], 37 nM | 0.64 | –
E28 [9], 111.1 nM | 0.832 | –
E28 [9], 333.3 nM | 0.524 | –
E28 [9], 1000 nM | 0.717 | –
E28 [9], 3000 nM | 0.589 | –
E31 [3], 4.1 nM | – | 0.911
E31 [3], 12.3 nM | – | 0.899
E31 [3], 37 nM | – | 1.03
E31 [3], 111.1 nM | – | 0.762
E31 [3], 333.3 nM | – | 1.01
E31 [3], 1000 nM | – | 0.88
E31 [3], 3000 nM | – | 0.874
E31 [10], 4.1 nM | 1.05 | –
E31 [10], 12.3 nM | 0.458 | –
E31 [10], 37 nM | 0.506 | –
E31 [10], 111.1 nM | 0.946 | –
E31 [10], 333.3 nM | 0.547 | –
E31 [10], 1000 nM | 0.532 | –
E31 [10], 3000 nM | 1.19 | –
E34 [4], 4.1 nM | – | 0.994
E34 [4], 12.3 nM | – | 0.901
E34 [4], 37 nM | – | 0.957
E34 [4], 111.1 nM | – | 0.923
E34 [4], 333.3 nM | – | 0.896
E34 [4], 1000 nM | – | 0.974
E34 [4], 3000 nM | – | 0.91
E34 [11], 4.1 nM | 1.83 | –
E34 [11], 12.3 nM | 0.749 | –
E34 [11], 37 nM | 0.609 | –
E34 [11], 111.1 nM | 0.331 | –
E34 [11], 333.3 nM | 0.663 | –
E34 [11], 1000 nM | 0.609 | –
E34 [11], 3000 nM | 0.89 | –
E57 [5], 4.1 nM | – | 0.993
E57 [5], 12.3 nM | – | 0.914
E57 [5], 37 nM | – | 0.948
E57 [5], 111.1 nM | – | 0.926
E57 [5], 333.3 nM | – | 0.952
E57 [5], 1000 nM | – | 0.889
E57 [5], 3000 nM | – | 1.2
E57 [12], 4.1 nM | 1.05 | –
E57 [12], 12.3 nM | 0.805 | –
E57 [12], 37 nM | 0.596 | –
E57 [12], 111.1 nM | 0.728 | –
E57 [12], 333.3 nM | 0.352 | –
E57 [12], 1000 nM | 0.966 | –
E57 [12], 3000 nM | 0.872 | –
FT3469 [1], 4.1 nM | – | 1.11
FT3469 [1], 12.3 nM | – | 0.948
FT3469 [1], 37 nM | – | 1.02
FT3469 [1], 111.1 nM | – | 0.934
FT3469 [1], 333.3 nM | – | 1
FT3469 [1], 1000 nM | – | 1.06
FT3469 [1], 3000 nM | – | 0.997
FT3469 [8], 4.1 nM | 1.76 | –
FT3469 [8], 12.3 nM | 1.1 | –
FT3469 [8], 37 nM | 0.901 | –
FT3469 [8], 111.1 nM | 0.672 | –
FT3469 [8], 333.3 nM | 1.85 | –
FT3469 [8], 1000 nM | 0.516 | –
FT3469 [8], 3000 nM | 0.354 | –
